From article PMC10574094, “Discovery of a SHP2 Degrader with In Vivo Anti-Tumor Activity” (Molecules, 2023)

Tests used:
other PTPs = assay: PTP inhibition assay, panel of representative PTP family members; format: biochemical; conditions: up to 10 µM P9 concentration
Description: PTP activity was assayed using p-nitrophenyl phosphate (pNPP) as a substrate in DMG buffer (50 mM DMG, pH 7.0, 1 mM EDTA, 150 mM NaCl, 2 mM DTT, 0.1 mg/mL BSA) at 25 °C. The assays were performed in 96-well plates. To determine the IC50 values, the reaction was initiated by the addition of enzyme (final concentration = 10 nM) to a reaction mixture (0.2 mL) containing pNPP (at a final concentration close to the Kms of tested enzymes, in specific: 0.05 mM for CDC-14A; 0.5 mM for FAP-1; 2 mM for TC-PTP, PTP1B, STEP, LWM-PTP, and PTPα; 3 mM for SHP1; 4 mM for Laforin; 5 mM for LYP, CD45, and VHR; 6 mM for PTP-MEG2 and HePTP) with various concentrations of inhibitors. The reaction rate was measured using a SpectraMax Plus 384 Microplate Spectrophotometer (Molecular Devices, San Jose, CA, USA). Data were fitted using the SigmaPlot Enzyme Kinetics Module (Systat Software, Inc., San Jose, CA, USA).

KYSE-520 cells = assay: CCK-8 cell proliferation assay; format: cell-based; conditions: Homo sapiens, 168 h; KYSE-520, CCK-8, 7 days; read-out: growth inhibition IC50
Description: The cell proliferation inhibition EC50 was determined by CCK-8 assay. KYSE-520 cells were seeded at 5 × 10^3 cells/well in 96 well plates. After 24 h, P9 was added to the medium starting at 80 μM in a 2-fold dilution rate of 0.16 μM. After 7 days, 10 μL of CCK-8 test solution (APExBIO Technology, Houston, TX, USA) was added into each well and incubated for 2 h at 37 °C. The optical density (OD) at 450 nm was measured with a microplate reader (Molecular Device, Sunnyvale, CA, USA). The cell viability rate at different concentrations of P9 treatment was determined with Prism, version 9.5.1 (GraphPad, San Diego, CA, USA).

pERK1/2 = pERK1/2 level in KYSE-520 tumor homogenates (Western blot); format: in vivo, mice; conditions: whole tumor homogenates, 50 mg/kg P9 IP
Description: HEK293, SKBR3, U2OS, MCF7 and A549 cells were grown in DMEM supplemented with 10% FBS, penicillin (50 units/mL), and streptomycin (50 μg/mL) in a 37 °C incubator containing 5% CO2. KYSE-520 and H358 cells were grown in RPMI-1640 supplemented with 10% FBS, penicillin (50 units/mL), and streptomycin (50 μg/mL) in a 37 °C incubator containing 5% CO2. For western-blot analysis, protein samples were separated by SDS-PAGE, transferred to nitrocellulose membranes, and incubated overnight at 4 °C with corresponding primary antibodies diluted in 5% BSA in phosphate-buffered saline Tween (PBST). SuperSignal™ West Pico PLUS (PI34580; Thermo Scientific) was used to visualize the antibodies in the bioanalytical imaging system (Azure Biosystems c500). Anti-p-ERK1/2 (T202/Y204) (4370), and anti-ERK1/2 (4696) were purchased from Cell Signaling Technology. Anti-GAPDH (sc-365062), anti-SHP2 (sc-7384), anti-SHP1 (sc-7289), and anti-Actin (sc-8432) antibodies were purchased from Santa Cruz. Anti-PTP1B (ab244207) antibody was purchased from Abcam. […]
For the xenograft tumor study, KYSE-520 cells were suspended in PBS and a total of 3 × 10^6 cells (100 μL) were subcutaneously implanted into both the left and right flank using a 27-gauge needle. Tumor volume was calculated using the formula V = (W^2 × L)/2 for caliper measurements. […]

PTP1B and SHP1 = assay: Western blot of PTP1B and SHP1 in KYSE-520 cells; format: cell-based; conditions: 16 h
Description: (§1) HEK293, SKBR3, U2OS, MCF7 and A549 cells were grown in DMEM supplemented with 10% FBS, penicillin (50 units/mL), and streptomycin (50 μg/mL) in a 37 °C incubator containing 5% CO2. KYSE-520 and H358 cells were grown in RPMI-1640 supplemented with 10% FBS, penicillin (50 units/mL), and streptomycin (50 μg/mL) in a 37 °C incubator containing 5% CO2. For western-blot analysis, protein samples were separated by SDS-PAGE, transferred to nitrocellulose membranes, and incubated overnight at 4 °C with corresponding primary antibodies diluted in 5% BSA in phosphate-buffered saline Tween (PBST). SuperSignal™ West Pico PLUS (PI34580; Thermo Scientific) was used to visualize the antibodies in the bioanalytical imaging system (Azure Biosystems c500). Anti-p-ERK1/2 (T202/Y204) (4370), and anti-ERK1/2 (4696) were purchased from Cell Signaling Technology. Anti-GAPDH (sc-365062), anti-SHP2 (sc-7384), anti-SHP1 (sc-7289), and anti-Actin (sc-8432) antibodies were purchased from Santa Cruz. Anti-PTP1B (ab244207) antibody was purchased from Abcam. For colony formation assay, a total of approximately 200–500 cells were seeded to each well in a 12-well plate. The wells were then treated with DMSO, compound P9 and 3 at 37 °C for 3 weeks, gently washed, and stained with crystal violet.

ERK1/2, AKT, β-Actin = assay: Western blot of other signaling proteins in HEK293 cells; format: cell-based, human; conditions: 1 μM P9, 16 h
Description: as §1

With `Cc1ncsc1-c1ccc([C@H](C)NC(=O)[C@@H]2C[C@@H](O)CN2C(=O)[C@@H](NC(=O)CCCCCCCCCN2CCN(C(=O)CCCCCC3(CN)CCN(c4cnc(Sc5cccc(Cl)c5Cl)c(N)n4)CC3)CC2)C(C)(C)C)cc1` [P9, (2S,4R)-1-((S)-2-(10-(4-(6-(1-(6-amino-5-((2,3-dichlorophenyl)thio)pyrazin-2-yl)-4-(aminomethyl)piperidin-4-yl)hexanoyl)piperazin-1-yl)decanamido)-3,3-dimethylbutanoyl)-4-hydroxy-N-((S)-1-(4-(4-methylthiazol-5-yl)phenyl)ethyl)pyrrolidine-2-carboxamide] the “inhibition towards other PTPs” value (other PTPs) was “no significant inhibition”, the IC50 (KYSE-520 cells) was 0.64 ± 0.13 µM and the “pERK1/2 level, % of the control group” value (pERK1/2) was 24 ± 12%. The “protein levels of PTP1B and SHP1” value (PTP1B and SHP1) was “not affected” and the “degradation of other signaling proteins” value (ERK1/2, AKT, β-Actin) was “did not induce any appreciable degradation”.
